Bridge positions count the residues as written; N and C are the ends. Peptide text beside a SMILES is read from it.
Assays:
[1] = Binding affinity to IgG (unknown origin) assessed as dissociation constant; set-up: species or system Homo sapiens
Homo sapiens = species: Homo sapiens; assay: Binding affinity to IgG (unknown origin) assessed as association rate constant

Row | Kd [1] | Ka (Homo sapiens) | SMILES
1 | 2.45 nM |  | CC(C)C[C@@H]1NC(=O)[C@H](Cc2cnc[nH]2)NC(=O)[C@H](Cc2c[nH]c3ccccc23)NC(=O)[C@H](C)NC(=O)[C@@H]2CSSC[C@H](NC(=O)[C@H](Cc3c[nH]c4ccccc34)NC(=O)[C@H](C(C)C)NC(=O)[C@H](CC(C)C)NC(=O)[C@H](CCC(=O)O)NC(=O)CNC1=O)C(=O)N[C@@H]([C@@H](C)O)C(=O)N[C@H](C(=O)O)CSSC[C@H](N)C(=O)N[C@@H](CC(=O)O)C(=O)N2
2 | 2.2 nM |  | CC(C)C[C@@H]1NC(=O)[C@H](Cc2cnc[nH]2)NC(=O)[C@H](Cc2c[nH]c3ccccc23)NC(=O)[C@H](C)NC(=O)[C@@H](NC(=O)[C@H](CC(=O)O)NC(=O)[C@@H]2CCCN2)CSSC[C@@H](C(=O)N[C@H](C(=O)N2CCC[C@@H]2C(N)=O)[C@@H](C)O)NC(=O)[C@H](Cc2c[nH]c3ccccc23)NC(=O)[C@H](C(C)C)NC(=O)[C@H](CC(C)C)NC(=O)[C@H](CCC(=O)O)NC(=O)CNC1=O
3 |  | 1.47e+06 M⁻¹ s⁻¹ | CC(=O)N[C@@H](CC(=O)O)C(=O)N[C@H]1CSSC[C@@H](C(=O)N[C@H](C(=O)N[C@@H](Cc2ccccc2)C(=O)N[C@@H](Cc2cnc[nH]2)C(N)=O)[C@@H](C)O)NC(=O)[C@H](Cc2c[nH]c3ccccc23)NC(=O)[C@H](C(C)C)NC(=O)[C@H](CC(C)C)NC(=O)[C@H](CCC(=O)O)NC(=O)CNC(=O)[C@H](CC(C)C)NC(=O)[C@H](Cc2cnc[nH]2)NC(=O)[C@H](Cc2ccc(O)cc2)NC(=O)[C@H](C)NC1=O (Ac-DCAYHLGELVWCTFH-NH2; disulfide 2-12)
4 |  | 741000 M⁻¹ s⁻¹ | CC(=O)N[C@@H](CC(=O)O)C(=O)N[C@H]1CSSC[C@@H](C(=O)N[C@H](C(=O)N[C@@H](Cc2ccccc2)C(=O)N[C@@H](Cc2cnc[nH]2)C(N)=O)[C@@H](C)O)NC(=O)[C@H](Cc2c[nH]c3ccccc23)NC(=O)[C@H](C(C)C)NC(=O)[C@H](CC(C)C)NC(=O)[C@H](CCC(=O)O)NC(=O)CNC(=O)[C@H](CCCCN)NC(=O)[C@H](Cc2cnc[nH]2)NC(=O)[C@H](Cc2ccc(O)cc2)NC(=O)[C@H](C)NC1=O (Ac-DCAYHKGELVWCTFH-NH2; disulfide 2-12)
